From patent US20260114452A1, “ADDITIVES FOR COLOR DRIFT REDUCTION IN COPPER-BASED ANTIMICROBIAL POLYMERIC FORMULATIONS” (CORNING INCORPORATED, priority 2021, published 2026)
Counter-ions that a name gives are not always drawn.

Key:
[1] = Color drift of paint dosed with copper-containing material and copper-coordinating additive (CIE a* before/after peroxide); type: physicochemical; conditions: for a* drift (total drift in color, gap between paint color before and after peroxide testing) / a* endpoint: FIG. 1, Control B paint, Cu:phosphate dibasic 1:0.3 and 1:0.6, other additives 1:0.5 and 1:1; for a* endpoint: after peroxide; for color shift to endpoint / color drift: FIG. 10; for color shift to endpoint / color drift / color drift: additive neutralized to pH 7; for drift in color: FIG. 3, additive neutralized to pH 7 before copper-containing material, 1:1.5 and 1:3 molar ratios; for color drift: 1:1 and 1:3 molar ratios
[2] = test system: bacteria; experiment: Antimicrobial efficacy (logarithmic reduction) of paint samples with copper-containing material and copper-coordinating additive; type: cell-based; conditions: FIG. 12; 50 g of 1:3 molar ratio mixture per gallon of control paint
Text: As used herein, the term “logarithmic reduction” means the negative value of log (Ca/C0), where Ca refers to the colony form unit (“CFU”) number of the antimicrobial surface and C0 refers to the CFU of the control surface that is not an antimicrobial surface. As an example, a 3 logarithmic reduction equals about 99.9% of the microbes killed and a logarithmic reduction of 5 equals about 99.999% of microbes killed. The logarithmic reduction value may be measured according to the ASTM D2574-16 (2016) “Standard Test Method for Resistance of Emulsion Paints in the Container to Attack by Microorganisms.”
The effectiveness of a composition of the present disclosure as a biocidal composition may be measured as a function of the composition's logarithmic reduction. The composition's logarithmic reduction value may be relevant to its ability to kill a wide variety of biological organisms to which the composition is exposed, but may also allow the copper-containing material to act as a preservative for the composition during storage (e.g., in a container such as, but not limited to a tank, a can, a bucket, a drum, a bottle, or a tube). […]

[3] = FIG. 5, Control N paint, 50 g/gallon

Compound	a* drift (total drift in color, gap between paint color before and after peroxide testing) ([1]; 50 g/gallon)	a* endpoint ([1]; 50 g/gallon)	color shift to endpoint / color drift ([1]; 1:3 molar ratio, 50 g/gallon)	other results
NC(N)=O [urea]	~−1	did not change the endpoint a*	–	–
O=P(O)(O)Oc1ccccc1 [phenyl phosphate]	–	–	–	color shift to endpoint ([1]; FIG. 13, 1:3 molar ratio, 50 g/gallon): all copper-coordinating additives except for phenyl phosphate accelerated color shift to endpoint
CCON [ethoxyamine hydrochloride]	–	–	accelerated color shift to endpoint, minimizing color drift	impact on antimicrobial efficacy [2]: minimal impact on antimicrobial efficacy
COP(=O)(O)O [methyl phosphate]	–	–	accelerated color shift to endpoint, minimizing color drift	impact on antimicrobial efficacy [2]: minimal impact on antimicrobial efficacy
Cl.NO [hydroxylamine hydrochloride]	~0	did not change the endpoint a*	–	drift in color ([1]; 50 g/gallon): reduced significantly; color drift [1, 3]: minimized color drift by accelerating to endpoint quickly; effect on a* / color endpoint (summary of data) ([1]; control paint samples, summary): accelerated color endpoints and reduced color shifts by starting with more negative a* values
COP(=O)(OC)OC [trimethyl phosphate]	–	–	accelerated color shift to endpoint, minimizing color drift	–
CCCCC(CC)COP(=O)(O)O (centres unmarked) [2EHP, 2-ethylhexylphosphate]	−0.25 to −1	−0.5 to −1	–	drift in color ([1]; 50 g/gallon): reduced significantly; color drift [1, 3]: did not minimize drift; color drift, 1:3 molar ratio relative to 1:1 molar ratio [1, 3]: some reduction in drift
phosphate dibasic	−1.75	~−1.5	–	–
